Results on 3 molecules are retold here after US20260327211A1, “MODULATORS OF A POTASSIUM CHANNEL AND OF TRPV1 CHANNEL AND USES THEREOF” (Bsense Bio Therapeutics Ltd., priority 2023, published 2026).

In one data set the target is 5-HT1A (Homo sapiens, UniProt P08908). The data set can be described thus: Functional screening panel, 5-HT1A. The class given is biochemical. To be noted: antagonist; read-out: IC/EC50 5-HT1A-antagonist. The method, then: (§1) A broad panel of 78 recombinant targets was tested for pharmacologic activity in vitro through a variety of functional assays (Eurofins DiscoverX, USA), as part of the National Institute of Neurological Disorders and Stroke (NINDS) Preclinical Screening Platform for Pain (PSPP) program. The biological targets for the in vitro profiling have been selected based on avoiding opioid receptor stimulation and targets known to be associated with adverse events or targeted by drugs of abuse. […] For each test, a reference compound was evaluated at the target of interest as a positive control.
5-HT1A, sequence (P08908 whole entry, species assumed): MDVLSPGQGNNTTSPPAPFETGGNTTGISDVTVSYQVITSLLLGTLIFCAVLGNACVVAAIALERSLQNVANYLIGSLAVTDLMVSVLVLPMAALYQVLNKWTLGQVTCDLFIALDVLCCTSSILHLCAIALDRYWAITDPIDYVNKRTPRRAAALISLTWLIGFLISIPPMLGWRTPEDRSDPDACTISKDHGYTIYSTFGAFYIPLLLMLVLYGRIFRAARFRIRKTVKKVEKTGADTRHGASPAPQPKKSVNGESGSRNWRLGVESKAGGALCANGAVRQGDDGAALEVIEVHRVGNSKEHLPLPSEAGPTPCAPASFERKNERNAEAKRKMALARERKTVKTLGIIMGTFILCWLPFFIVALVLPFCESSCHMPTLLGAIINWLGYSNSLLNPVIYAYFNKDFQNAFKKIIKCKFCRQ

The next data set relates to Bradykynin B1-2. Description: Functional screening panel, Bradykynin B1-2. The class given is biochemical. To be noted: up to 10 micromolar. The method, then: as §1
The test system of a further data set is COX-1/2. Description: Functional selectivity panel, COX-1/2. The format is biochemical. To be noted: up to 10 micromolar. The method, then:
as §1

Another data set has as its system Vasopressin 1-2. Description: Functional screening panel, Vasopressin 1-2. The format is biochemical. To be noted: up to 10 micromolar. The method, then: as §1
For the next data set, the target named is T1, hKv7.2/3 (Homo sapiens, UniProt O43525+O43526).
T1 construct: host or cells: CHO
T1 sequence (O43525 whole entry): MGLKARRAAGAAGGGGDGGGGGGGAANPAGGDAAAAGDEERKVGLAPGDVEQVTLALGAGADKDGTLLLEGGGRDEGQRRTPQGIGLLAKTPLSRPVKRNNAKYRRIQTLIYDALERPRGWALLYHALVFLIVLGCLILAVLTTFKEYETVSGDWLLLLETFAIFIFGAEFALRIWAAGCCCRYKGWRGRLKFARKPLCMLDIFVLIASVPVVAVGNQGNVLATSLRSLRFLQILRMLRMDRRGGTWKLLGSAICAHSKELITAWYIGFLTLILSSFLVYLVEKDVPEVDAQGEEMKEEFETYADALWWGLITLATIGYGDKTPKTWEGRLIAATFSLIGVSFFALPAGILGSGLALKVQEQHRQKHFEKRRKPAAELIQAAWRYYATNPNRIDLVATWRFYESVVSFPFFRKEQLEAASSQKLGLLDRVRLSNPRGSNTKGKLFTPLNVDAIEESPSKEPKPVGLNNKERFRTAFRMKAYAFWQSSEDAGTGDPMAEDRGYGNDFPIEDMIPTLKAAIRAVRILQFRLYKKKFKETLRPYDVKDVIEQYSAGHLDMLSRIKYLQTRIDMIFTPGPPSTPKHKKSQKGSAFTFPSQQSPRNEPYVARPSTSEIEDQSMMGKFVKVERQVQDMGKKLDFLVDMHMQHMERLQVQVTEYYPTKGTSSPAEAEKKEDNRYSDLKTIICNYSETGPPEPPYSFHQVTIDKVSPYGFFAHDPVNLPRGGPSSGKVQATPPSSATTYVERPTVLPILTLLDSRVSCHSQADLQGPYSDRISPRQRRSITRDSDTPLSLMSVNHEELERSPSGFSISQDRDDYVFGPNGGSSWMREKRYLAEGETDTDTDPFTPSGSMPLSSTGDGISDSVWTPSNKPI
T1 sequence (O43526 whole entry): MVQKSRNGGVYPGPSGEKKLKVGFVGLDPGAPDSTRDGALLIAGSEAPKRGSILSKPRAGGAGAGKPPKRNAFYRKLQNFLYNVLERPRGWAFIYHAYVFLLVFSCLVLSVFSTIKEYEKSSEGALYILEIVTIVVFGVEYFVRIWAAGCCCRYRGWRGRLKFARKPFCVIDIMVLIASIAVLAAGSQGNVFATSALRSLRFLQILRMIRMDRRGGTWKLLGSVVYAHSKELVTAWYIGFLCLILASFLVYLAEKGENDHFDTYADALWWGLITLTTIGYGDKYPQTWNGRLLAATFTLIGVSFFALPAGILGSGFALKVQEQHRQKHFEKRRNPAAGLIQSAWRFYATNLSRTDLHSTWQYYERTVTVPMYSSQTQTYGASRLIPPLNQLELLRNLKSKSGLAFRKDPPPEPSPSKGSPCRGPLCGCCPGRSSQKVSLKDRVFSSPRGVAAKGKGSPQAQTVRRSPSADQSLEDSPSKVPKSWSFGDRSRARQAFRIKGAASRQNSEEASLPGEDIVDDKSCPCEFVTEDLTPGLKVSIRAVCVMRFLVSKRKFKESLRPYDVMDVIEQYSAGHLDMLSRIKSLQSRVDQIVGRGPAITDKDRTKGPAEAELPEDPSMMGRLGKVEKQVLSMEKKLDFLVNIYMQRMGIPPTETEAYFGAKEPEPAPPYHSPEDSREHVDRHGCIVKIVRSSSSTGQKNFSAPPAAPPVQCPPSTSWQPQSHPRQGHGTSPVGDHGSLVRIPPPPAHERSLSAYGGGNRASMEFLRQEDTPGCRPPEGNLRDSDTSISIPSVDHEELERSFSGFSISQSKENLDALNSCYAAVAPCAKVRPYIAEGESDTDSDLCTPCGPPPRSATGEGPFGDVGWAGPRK
Description: Kv7.2/7.3 whole-cell electrophysiology in CHO cells. The class given is cell-based. To be noted: 100 nM, −40 mV, N=4, read-out: Kv7.2/3 current activation. From the text:
Extracellular (Bath) solution: The solution was composed of (in mM): NaCl, 140; KCl, 4; CaCl2, 1.8; MgCl2, 1.2; Glucose, 11; HEPES, 5.5. pH was adjusted to 7.3 with NaOH. Osmolarity was adjusted to 310 mOsm with Sucrose.
Intracellular (Pipette) solution: Pipettes were pulled from borosilicate glass (Warner Instrument Corp, USA) with a resistance of 3-7 MΩ and were filled with internal solution composed of (in mM): KCl, 130; MgCl2, 1; K ATP, 5; EGTA, 5 (replaced by BAPTA in rat DRG neurons recordings); HEPES, 10. pH was adjusted to 7.3 with KOH. Osmolarity was adjusted to 290 mOsm with Sucrose.
A programmable valve-linked pressurized perfusion system (AutoMate Scientific) was used for local application of compounds nearby the cell recorded in a consistent flow rate of 2-3 ml/min. Series resistance was corrected and data were sampled at 5 kHz and low pass filtered at 2.4 kHz using MultiClamp 700B amplifier with pCLAMP11 software (Molecular Devices, USA). […]
The current obtained at −40 mV membrane potential when test compound is injected is divided by the averaged current at −40 mV, recorded before test-compound application and following its washout, to evaluate the drug/control response.

For another data set, the target named is T2, dopamine D2 (Homo sapiens, UniProt P14416).
T2 construct: Eurofins DiscoverX, USA
T2 sequence (P14416 whole entry): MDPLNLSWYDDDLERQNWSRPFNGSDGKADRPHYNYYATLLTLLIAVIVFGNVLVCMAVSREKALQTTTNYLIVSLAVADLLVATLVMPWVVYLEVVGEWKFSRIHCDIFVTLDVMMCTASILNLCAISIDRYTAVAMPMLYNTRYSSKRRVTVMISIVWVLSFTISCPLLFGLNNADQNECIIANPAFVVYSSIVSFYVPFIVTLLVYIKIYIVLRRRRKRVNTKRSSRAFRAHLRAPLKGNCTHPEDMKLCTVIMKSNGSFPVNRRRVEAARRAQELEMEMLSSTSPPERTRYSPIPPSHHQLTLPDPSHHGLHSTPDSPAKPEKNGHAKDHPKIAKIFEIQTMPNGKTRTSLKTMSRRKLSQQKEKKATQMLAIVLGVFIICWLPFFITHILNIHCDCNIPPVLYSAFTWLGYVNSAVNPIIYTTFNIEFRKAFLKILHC
Description: Functional selectivity panel, dopamine D2. The format is biochemical. The method, then: as §1

Data set [1] concerns Post-operative Pain (POP) rats. The data set can be described thus: Post-operative Pain model, thermal. The class given is in vivo, rat. To be noted: 100 mg/kg, 6 hours post-dose. The method, then: All animal experiments were carried out according to the Guide for the Care and Use of Laboratory Animals (2011 edition) and approved by the Israel National Institutional Animal Care and Use Committee (IACUC). Young adult male SD rats (Envigo RMS, Israel), were used for in vivo efficacy: Spared Nerve Injury (SNI), Distal Tibial Injury (DTI) and Post-operative Pain (POP), 200-220 grams, Chronic Post-Ischemia Pain (CPIP) 275-325 grams, Monosodium iodoacetate-induced osteoarthritis (MIA-OA) 180-220 grams; for in vivo safety: 200-250 grams at study initiation. […] The health status of the animals used in this study was examined upon their arrival. Only animals in good health were acclimatized to laboratory conditions and were used in the studies. All studies were performed following at least five days of animal acclimation. […] Water was monitored periodically. […]
Post-operative Pain (POP): For this model, animals were anesthetized by medetomidine/ketamine sodium IP. […] On the following day, animal responses to von Frey (VF) filaments and hot-plate testing were recorded.
Hot Plate: Animals were placed on hot plate analgesia meter (IITC Life Science Inc., CA, USA) set to 53±1° C., and the time until the first escape response was observed was recorded. […]

A short description of another data set: DRG distribution in rat. The class given is in vivo. To be noted: 8-hour post-dose.

As to `O=C(Cc1nccc(-n2cc(Cl)c3cc(Cl)cc(Cl)c32)n1)NC1COCC1O` (centres unmarked) [Compound 760], the IC50 on 5-HT1A came to 30.4 µM. Moreover, the “Effect on Bradykynin B1-2” value in the data set with Bradykynin B1-2 is “no effect”. The “Effect on COX-1/2” value in the data set on COX-1/2 is reported as “no effect”. For the same molecule, the “Effect on Vasopressin 1-2” value with Vasopressin 1-2 was “no effect”.
Take `O=C(Cc1cc(-n2cc(Cl)c3cc(Cl)cc(Cl)c32)ccc1F)NCCO` [Compound 627]: the activation at 0.1 µM on hKv7.2/3 was 24.4 ± 10.4%.
In turn, `O=C(Cc1cncc(-n2cc(Cl)c3cc(Cl)cc(Cl)c32)c1)N[C@@H]1COC[C@H]1O` [Compound 661] registered an IC50 on dopamine D2 of 10 µM. The Thermal withdrawal latency result in data set [1] is recorded as “completely reversed”. The “Free exposure in DRG” value in the data set “DRG distribution in rat” was 0.012 nM.
